According to patent US10889573B2, “Anthelmintic quinoline-3-carboxamide derivatives” (Bayer Animal Health GMBH, priority 2016, dated 2021):

Tests used:
[1] = tested on: Dirofilaria immitis microfilariae; assay: In vitro assay 3: Dirofilaria immitis microfilariae (DIROIM L1), motility; settings: 72 h, read-out: EC50 (reduction of motility), 72 h incubation
[2] = tested on: Dirofilaria immitis third-stage larvae; assay: In vitro assay 4: Dirofilaria immitis (DIROIM L4), motility; settings: 72 h, read-out: EC50 (reduction of motility)
[3] = tested on: Cooperia curticei; settings: for mortality at 4 ppm / mortality at 20 ppm: Cooperia curticei, 120 h, read-out: activity (larval mortality)
Protocol: In Vitro Assay 6: Cooperia curticei (COOPCU L3)
Solvent: dimethyl sulfoxide
Approximately 40 nematode larvae (Cooperia curticei) are transferred into a test tube containing the compound solution.
After 5 days percentage of larval mortality is recorded. 100% efficacy means all larvae are killed; 0% efficacy means no larvae are killed.

[4] = molecular target: C. elegans Slo-1a (Caenorhabditis elegans, UniProt Q95V25); settings: pE50 (negative decadic logarithm of EC50), CHO cells expressing C. elegans Slo-1a, voltage sensitive dye
[5] = tested on: Nippostrongylus brasiliensis; assay: In vitro assay 2: Nippostrongylus brasiliensis (NIPOBR), acetylcholine esterase readout; settings: read-out: activity (reduction of AChE compared to negative control); for inhibition at 1 µg/mL: 1 μg/ml; for inhibition at 10 µg/mL: 10 μg/ml
Protocol: In Vitro Assay 2: Nippostrongylus brasiliensis (NIPOBR)
Adult Nippostrongylus brasiliensis were washed with saline buffer containing 100 U/ml penicillin, 0.1 mg/ml streptomycin and 2.5 μg/ml amphotericin B. Test compounds were dissolved in DMSO and worms were incubated in medium in a final concentration of 10 μg/ml (10 ppm) respectively 1 μg/ml (1 ppm). An aliquot of the medium was used to determine the acetylcholine esterase activity in comparison to a negative control. The principle of measuring acetylcholine esterase as readout for anthelmintic activity was described in Rapson et al (1986) and Rapson et al (1987).

[6] = tested on: Haemonchus contortus; settings: 120 h, read-out: activity (larval mortality)
Protocol: In Vitro Assay 7: Haemonchus contortus (HAEMCO L3)
Solvent: dimethyl sulfoxide
Approximately 40 larvae of the red stomach worm (Haemonchus contortus) are transferred into a test tube containing compound solution.
After 5 days the percentage of larval mortality is recorded. 100% efficacy means all larvae are killed, 0% efficacy means no larvae are killed.

Chain of C. elegans Slo-1a (Q95V25 whole entry): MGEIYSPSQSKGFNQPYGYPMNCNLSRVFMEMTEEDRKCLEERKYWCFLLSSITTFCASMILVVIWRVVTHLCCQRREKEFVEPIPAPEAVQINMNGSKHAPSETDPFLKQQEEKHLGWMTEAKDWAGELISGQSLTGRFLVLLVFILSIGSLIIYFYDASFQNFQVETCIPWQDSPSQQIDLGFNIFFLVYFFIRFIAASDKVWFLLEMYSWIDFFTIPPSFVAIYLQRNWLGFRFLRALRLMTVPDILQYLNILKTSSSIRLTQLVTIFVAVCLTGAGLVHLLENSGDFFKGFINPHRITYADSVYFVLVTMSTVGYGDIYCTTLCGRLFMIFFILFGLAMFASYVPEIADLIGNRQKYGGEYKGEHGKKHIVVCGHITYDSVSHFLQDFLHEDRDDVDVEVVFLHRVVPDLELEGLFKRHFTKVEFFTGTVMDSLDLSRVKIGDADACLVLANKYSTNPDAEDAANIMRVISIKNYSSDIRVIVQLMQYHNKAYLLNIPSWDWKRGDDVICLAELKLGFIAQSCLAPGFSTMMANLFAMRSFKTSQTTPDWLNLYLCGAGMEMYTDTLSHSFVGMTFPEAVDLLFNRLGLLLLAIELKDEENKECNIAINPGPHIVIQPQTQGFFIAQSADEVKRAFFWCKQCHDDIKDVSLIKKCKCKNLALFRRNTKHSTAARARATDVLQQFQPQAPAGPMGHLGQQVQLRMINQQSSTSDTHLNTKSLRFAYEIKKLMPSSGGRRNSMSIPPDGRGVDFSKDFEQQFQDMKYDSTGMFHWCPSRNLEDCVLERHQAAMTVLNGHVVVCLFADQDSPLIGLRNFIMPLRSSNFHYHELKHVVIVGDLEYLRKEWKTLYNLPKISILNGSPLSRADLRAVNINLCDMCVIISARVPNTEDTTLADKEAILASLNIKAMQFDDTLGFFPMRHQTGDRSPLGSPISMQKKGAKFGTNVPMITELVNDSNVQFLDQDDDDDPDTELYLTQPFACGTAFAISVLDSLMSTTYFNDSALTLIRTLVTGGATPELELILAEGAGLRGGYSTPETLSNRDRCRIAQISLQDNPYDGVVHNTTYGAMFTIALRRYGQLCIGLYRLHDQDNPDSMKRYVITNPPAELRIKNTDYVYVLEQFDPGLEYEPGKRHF

SMILES	EC50 [1] [µg/mL]	EC50 [2] [µg/mL]	mortality at 4 ppm [3] [%]	mortality at 20 ppm [3] [%]	EC50 [4] [nM]	inhibition at 1 µg/mL [5] [%]	inhibition at 10 µg/mL [5] [%]	mortality at 20 ppm [6] [%]	activity (larval mortality) ([3]; 0.8 ppm, after 5 days) [%]	mortality at 4 ppm [6] [%]
O=C(N[C@H]1CCOc2ccccc21)c1cnc2c(-c3ccc(F)c(Cl)c3)cccc2c1N1CCC(O)C1 (mixture of isomers) [Example 196]	< 0.1	< 0.1	90	100	3.16 to 31.6	–	–	–	–	–
Cc1cc(C)cc(-c2cccc3c(Cl)c(C(=O)N[C@H]4CCCc5ccccc54)cnc23)c1 [Example 1, 4-chloro-8-(3,5-dimethylphenyl)-N-[(1S)-1,2,3,4-tetrahydronaphthalen-1-yl]quinoline-3-carboxamide]	< 0.1	< 1	–	–	31.6 to 316	–	–	–	–	–
O=C(N[C@H]1CCCc2ccccc21)c1cnc2c(-c3cc(Cl)cc(Cl)c3)cccc2c1Cl [Example 2]	< 10	< 1	–	–	3.16 to 31.6	–	–	–	–	–
O=C(N[C@H]1CCOc2ccccc21)c1cnc2c(-c3cc(Cl)c(F)c(Cl)c3)cc(F)cc2c1N1CCOCC1 [Example 43]	< 0.1	< 0.1	–	–	< 3.16	> 80	> 80	–	–	–
CN(C)c1c(C(=O)N[C@H]2CCOc3ccccc32)cnc2c(-c3ncccc3F)cccc12 [Example 62]	< 1	< 0.1	–	–	31.6 to 316	–	> 80	–	–	–
COc1cc(-c2cccc3c(N(C)C)c(C(=O)N[C@H]4CCOc5ccccc54)cnc23)ccn1 [Example 64]	< 0.1	< 0.1	–	–	3.16 to 31.6	–	> 80	–	–	–
O=C(N[C@H]1CCc2ccccc21)c1cnc2c(-c3cc(Cl)cc(Cl)c3)cccc2c1N1CC(F)C1 [Example 119]	< 0.1	< 0.1	–	–	3.16 to 31.6	> 80	> 80	–	–	–
CN(C)c1c(C(=O)N[C@H]2CCOc3ccccc32)cnc2c(-c3ccc(F)cc3Cl)cc(F)cc12 [Example 180]	< 0.1	–	–	–	3.16 to 31.6	–	–	80	–	–
O=C(N[C@H]1CCOc2ccccc21)c1cnc2c(-c3ccc(F)c(Cl)c3)cccc2c1N1CCOCC1 [Example 190]	–	–	–	–	–	–	–	–	80	–
O=C(N[C@H]1CCOc2ccccc21)c1cnc2c(-c3cccc(F)c3Cl)cccc2c1N1CCOCC1 [Example 238]	< 0.1	< 0.1	–	80	< 3.16	> 80	–	–	–	–
O=C(N[C@H]1CCOc2ccccc21)c1cnc2c(-c3cc(Cl)cc(Cl)c3)cccc2c1N1CCC[C@H]1C(=O)O [Example 261, 1-{8-(3,5-dichlorophenyl)-3-[(4S)-3,4-dihydro-2H-chromen-4-ylcarbamoyl]quinolin-4-yl}-L-proline]	< 0.1	< 0.1	–	–	–	> 80	–	–	–	–
O=C(O)CNc1c(C(=O)N[C@H]2CCOc3ccccc32)cnc2c(-c3cc(Cl)cc(Cl)c3)cccc12 [Example 276]	< 0.1	–	–	90	31.6 to 316	> 80	–	80	–	–
CN(C)c1c(C(=O)N[C@H]2CCOc3ccccc32)cnc2c(-c3c(F)cccc3F)cccc12 [Example 277]	< 0.1	< 0.1	–	–	< 3.16	> 80	–	–	–	–
O=C(N[C@H]1CCOc2ccccc21)c1cnc2c(-c3c(F)cccc3F)c(F)ccc2c1N1CCOCC1 [Example 278]	< 0.1	< 0.1	–	–	< 3.16	–	–	–	–	–
O=C(N[C@H]1CCOc2ccccc21)c1cnc2c(-c3cc(Cl)cc(Cl)c3)cccc2c1N1CC[C@@H](O)C1 [Example 283]	< 0.1	< 0.1	–	–	< 3.16	> 80	–	–	–	–
C[C@H]1CN(c2c(C(=O)N[C@H]3CCOc4ccccc43)cnc3c(-c4cc(Cl)cc(Cl)c4)cccc23)CCO1 [Example 290]	< 0.1	< 0.1	–	–	< 3.16	> 80	–	–	–	–
COCCNc1c(C(=O)N[C@H]2CCc3ccccc32)cnc2c(-c3cc(Cl)cc(Cl)c3)cccc12 [Example 298]	–	–	–	80	< 3.16	–	–	–	–	–
O=C(N[C@H]1CCOc2ccccc21)c1cnc2c(-c3cccc(Cl)c3Cl)c(C(F)(F)F)ccc2c1N1CCOCC1 [Example 314]	< 0.1	< 0.1	–	90	< 3.16	> 80	–	–	–	–

SMILES	EC50 [1] [µg/mL]	EC50 [2] [µg/mL]	mortality at 4 ppm [3] [%]	mortality at 20 ppm [3] [%]	EC50 [4] [nM]	inhibition at 1 µg/mL [5] [%]	inhibition at 10 µg/mL [5] [%]	mortality at 20 ppm [6] [%]	activity (larval mortality) ([3]; 0.8 ppm, after 5 days) [%]	mortality at 4 ppm [6] [%]
CN(C)c1c(C(=O)N[C@H]2CCOc3ccccc32)cnc2c(-c3cccc(Cl)c3Cl)c(C(F)(F)F)ccc12 [Example 315]	< 0.1	< 0.1	–	80	< 3.16	> 80	–	–	–	–
O=C(N[C@H]1CCOc2ccccc21)c1cnc2c(-c3cccc(OC(F)(F)F)c3)cccc2c1N1CCOCC1 [Example 322]	< 0.1	< 0.1	–	80	< 3.16	> 80	–	–	–	–
COCCOc1c(C(=O)N[C@H]2CCOc3ccccc32)cnc2c(-c3cc(Cl)cc(Cl)c3)cccc12 [Example 338]	< 0.1	< 0.1	90	90	< 3.16	> 80	> 80	–	–	–
N#CCc1c(C(=O)N[C@H]2CCOc3ccccc32)cnc2c(-c3cc(Cl)cc(Cl)c3)cccc12 [Example 355, 4-(cyanomethyl)-8-(3,5-dichlorophenyl)-N-[(4S)-3,4-dihydro-2H-chromen-4-yl]quinoline-3-carboxamide]	< 0.1	< 0.1	–	–	< 3.16	> 80	–	–	–	–
NC(=O)Cc1c(C(=O)N[C@H]2CCOc3ccccc32)cnc2c(-c3cc(Cl)cc(Cl)c3)cccc12 [Example 360, 4-(2-amino-2-oxoethyl)-8-(3,5-dichlorophenyl)-N-[(4S)-3,4-dihydro-2H-chromen-4-yl]quinoline-3-carboxamide]	< 0.1	< 0.1	–	–	3.16 to 31.6	> 80	–	–	–	–
N#Cc1c(C(=O)N[C@H]2CCOc3ccccc32)cnc2c(-c3cc(Cl)cc(Cl)c3)cccc12 [Example 362, 4-cyano-8-(3,5-dichlorophenyl)-N-[(4S)-3,4-dihydro-2H-chromen-4-yl] quinoline-3-carboxamide]	< 0.1	< 0.1	–	–	–	> 80	> 80	–	–	–
O=C(N[C@H]1CCOc2ccccc21)c1cnc2c(-c3cc(Cl)cc(Cl)c3)cccc2c1N1CC(F)C1 [Example 392]	< 0.1	< 0.1	–	–	3.16 to 31.6	> 80	–	80	–	80
Cc1ccc(F)c(-c2cccc3c(N(C)C)c(C(=O)N[C@H]4CCOc5ccccc54)cnc23)c1 [Example 437]	< 0.1	< 0.1	80	–	< 3.16	> 80	–	–	–	–
O=C(N[C@H]1CCOc2ccccc21)c1cnc2c(-c3cc(Cl)sc3Cl)cccc2c1N1CCOCC1 [Example 441]	< 0.1	< 0.1	–	–	< 3.16	> 80	–	–	–	–
O=C(N[C@H]1CCOc2ccccc21)c1cnc2c(-c3sccc3Cl)cccc2c1N1CCOCC1 [Example 442]	< 0.1	< 0.1	–	–	< 3.16	–	–	–	–	–
Cc1ccc(C)c(-c2cccc3c(N(C)C)c(C(=O)N[C@H]4CCOc5ccccc54)cnc23)c1 [Example 471]	< 0.1	–	–	80	3.16 to 31.6	> 80	–	–	–	80
C=Cc1c(C(=O)N[C@H]2CCOc3ccccc32)cnc2c(-c3cc(Cl)cc(Cl)c3)cccc12 [Example 478]	< 0.1	< 0.1	–	–	< 3.16	> 80	–	–	–	–
CN(C)c1c(C(=O)NC2CSc3ccccc32)cnc2c(-c3cc(Cl)cc(Cl)c3)cccc12 (centres unmarked) [Example 493]	< 0.1	< 0.1	–	–	3.16 to 31.6	–	–	–	–	–
CCc1c(C(=O)N[C@H]2CCOc3ccccc32)cnc2c(-c3cccc(OC(F)(F)F)c3)cccc12 [Example 570]	< 0.1	< 0.1	–	–	3.16 to 31.6	> 80	–	–	–	–
Cc1cc(-c2cccc3c(N4CCOCC4)c(C(=O)N[C@H]4CCOc5ccccc54)cnc23)cc(C(C)(C)C)c1 [Example 587]	< 0.1	< 0.1	–	80	< 3.16	> 80	–	–	–	–
CN(C)c1c(C(=O)N[C@H]2CCOc3ccccc32)cnc2c(-c3cc(C#N)cc(Cl)c3Cl)cccc12 [Example 624]	< 0.1	–	80	100	< 3.16	> 80	–	80	–	–
CC(=O)N(C)Cc1c(C(=O)N[C@H]2CCOc3ccccc32)cnc2c(-c3cc(Cl)cc(Cl)c3)cccc12 [Example 631]	< 10	–	100	100	< 3.16	> 80	–	100	–	100
